Counter-ions that a name gives are not always drawn.
Columns and labels:
[1] = test system: wheals induced by intradermal injections of histamine; experiment: reduction of wheals induced by intradermal injections of histamine in guinea pigs; assay type: in vivo, guinea pig; details: Cavia porcellus, po, 1 h, orally administered one hour prior to histamine injection, intradermal injections of 1γ each of histamine, read-out: ED50 (amount required to reduce by 50% wheals induced by intradermal histamine)
[2] = test system: aerosol antigen induced bronchial spasms and death; experiment: prevention of aerosol antigen induced bronchial spasms and death in the guinea pig; assay type: in vivo; details: Cavia porcellus, po, orally, read-out: minimal amount required to prevent aerosol antigen induced bronchial spasms and death
Text: The minimal amounts of the compounds of Examples 5 and 9 required to prevent aerosol antigen induced bronchial spasms and death in the guinea pig are respectively 4.0 and 8.0 milligrams per kilogram of body weight orally.

Structure (SMILES) | ED50 [1] [mg/kg] | minimal effective dose [2] [mg/kg]
Fc1ccc(C=CCCN2CCC(C(c3ccccc3)c3ccccc3)CC2)cc1 [Example 2, 4-(Diphenylmethyl)-1-[4-(p-fluorophenyl)-3-butenyl]-piperidine hydrochloride hemihydrate] | 14.4 | 
Cl.O=C(CCCN1CCC(=C(c2ccccc2)c2ccccc2)CC1)c1cccs1 [Example 5, 4-[4-(Diphenylmethylene)piperidino]-1-(2-thienyl)-1-butanone hydrochloride] | 3.1 | 4
CC(C)(C)c1ccc(C(=O)CCCN2CCC(=C(c3ccccc3)c3ccccc3)CC2)cc1.Cl [Example 9, 4'-tert-Butyl-4-[4-(diphenylmethylene)piperidino]butyrophenone hydrochloride] | 4 | 8

Source: patent US4180583A, “Olefinic 4-substituted piperidino derivatives as therapeutics” (Richardson-Merrell Inc., priority 1978, dated 1979)
